# Reference: ChEMBL document CHEMBL3120155, “4,4'-Diaminodiphenyl ether derivatives: synthesis, spectral, optical, thermal characterization and in-vitro cytotoxicity against Hep 3B and IMR 32 human cell lines” (Eur J Med Chem, 2014)
# Calls of active or inactive are those of the source. The rule behind the calls is not given here.
# What was measured:
# [1] = Cytotoxicity against human Hep3B cells after 6 hrs by MTT assay; assay type: functional, cell-based, Hep 3B2
# [2] = Cytotoxicity against human IMR32 cells after 6 hrs by MTT assay; assay type: functional, cell-based; conditions: IMR-32, 6 h
# IMR-32 [3] = assay: Induction of apoptosis in human IMR32 cells assessed as DNA fragmentation at IC50 after 6 hrs by agarose gel electrophoresis; assay type: functional, cell-based
# Hep 3B2 [4] = assay: Induction of apoptosis in human Hep3B cells assessed as DNA fragmentation at IC50 after 6 hrs by agarose gel electrophoresis; assay type: functional, cell-based
# IMR-32 [5] = assay: Induction of apoptosis in human IMR32 cells assessed as cell shrinkage at IC50 after 6 hrs by microscopic analysis; assay type: functional, cell-based
# Hep 3B2 [6] = assay: Induction of apoptosis in human Hep3B cells assessed as cell shrinkage at IC50 after 6 hrs by microscopic analysis; assay type: functional, cell-based
Structure (SMILES),IC50 [1],IC50 [2],Activity (IMR-32 [3]),Activity (Hep 3B2 [4]),Activity (IMR-32 [5]),Activity (Hep 3B2 [6])
c1ccc2c(CNc3ccc(Oc4ccc(NCc5c6ccccc6cc6ccccc56)cc4)cc3)c3ccccc3cc2c1,50.1 µg/mL,65 µg/mL,,,,
C(=N\c1ccc(Oc2ccc(/N=C/c3c4ccccc4cc4ccccc34)cc2)cc1)/c1c2ccccc2cc2ccccc12,59.6 µg/mL,50.3 µg/mL,,,,
Nc1ccc(Oc2ccc(N)cc2)cc1,83.2 µg/mL,54.5 µg/mL,,,,
C(=N\c1ccc(Oc2ccc(/N=C/c3cc4ccccc4c4ccccc34)cc2)cc1)/c1cc2ccccc2c2ccccc12,44.7 µg/mL,63.1 µg/mL,,,,
C(=N\c1ccc(Oc2ccc(/N=C/c3cccc4ccccc34)cc2)cc1)/c1cccc2ccccc12,14.1 µg/mL,33.5 µg/mL,Active,Active,Active,Active
C(=N\c1ccc(Oc2ccc(/N=C/c3ccccc3)cc2)cc1)/c1ccccc1,29.8 µg/mL,42.9 µg/mL,,,,
c1ccc2c(CNc3ccc(Oc4ccc(NCc5cccc6ccccc56)cc4)cc3)cccc2c1,89.1 µg/mL,89.1 µg/mL,,,,
c1ccc(CNc2ccc(Oc3ccc(NCc4ccccc4)cc3)cc2)cc1,28.2 µg/mL,31.9 µg/mL,Active,Active,,
